According to patent US8426588B2, “Phenylalanine derivatives” (Ajinomoto Co, Inc., priority 2000, dated 2013):

Legend:
[1] = biological target: T1, integrin α4β7 (Homo sapiens, UniProt P13612+P26010); experiment: VCAM antagonistic activity (VCAM-1/α4β7 binding assay), RPMI-8866 cells binding to VCAM-1; format: cell-based; details: RPMI-8866 human B lymphoma cells binding to recombinant human VCAM-1; binding buffer with 4 mM MnCl2
T1 construct: lymphoma cell strain RPMI-8866 of human B cells, known to express integrin α4β7; endogenous in cells; host or cells: RPMI-8866
T1 sequence (P13612 34-1032): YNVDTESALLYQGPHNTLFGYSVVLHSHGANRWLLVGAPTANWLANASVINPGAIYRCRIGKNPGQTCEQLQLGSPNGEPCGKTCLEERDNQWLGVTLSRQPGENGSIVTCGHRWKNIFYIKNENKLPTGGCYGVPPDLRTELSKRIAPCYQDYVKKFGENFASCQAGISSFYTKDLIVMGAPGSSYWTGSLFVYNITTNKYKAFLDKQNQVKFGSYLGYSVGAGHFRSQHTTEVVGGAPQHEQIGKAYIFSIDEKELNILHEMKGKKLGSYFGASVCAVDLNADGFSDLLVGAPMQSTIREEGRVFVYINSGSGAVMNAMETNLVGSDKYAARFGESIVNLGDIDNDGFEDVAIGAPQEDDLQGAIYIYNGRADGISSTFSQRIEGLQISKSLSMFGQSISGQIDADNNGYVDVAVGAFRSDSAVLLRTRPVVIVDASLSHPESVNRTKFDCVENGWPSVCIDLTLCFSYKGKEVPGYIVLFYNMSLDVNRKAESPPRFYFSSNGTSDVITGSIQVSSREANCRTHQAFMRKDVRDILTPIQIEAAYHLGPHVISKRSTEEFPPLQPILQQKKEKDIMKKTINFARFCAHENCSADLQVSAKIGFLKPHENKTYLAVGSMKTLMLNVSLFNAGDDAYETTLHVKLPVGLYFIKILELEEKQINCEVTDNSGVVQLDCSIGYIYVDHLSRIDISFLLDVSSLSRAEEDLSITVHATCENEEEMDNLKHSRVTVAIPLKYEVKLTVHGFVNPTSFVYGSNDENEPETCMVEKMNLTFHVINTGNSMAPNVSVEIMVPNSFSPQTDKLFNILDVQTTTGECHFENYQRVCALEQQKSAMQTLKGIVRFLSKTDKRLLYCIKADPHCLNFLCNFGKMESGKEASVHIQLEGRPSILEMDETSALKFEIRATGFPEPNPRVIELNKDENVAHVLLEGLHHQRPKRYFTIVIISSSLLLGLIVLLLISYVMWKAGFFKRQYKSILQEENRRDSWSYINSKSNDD
T1 sequence (P26010 20-798): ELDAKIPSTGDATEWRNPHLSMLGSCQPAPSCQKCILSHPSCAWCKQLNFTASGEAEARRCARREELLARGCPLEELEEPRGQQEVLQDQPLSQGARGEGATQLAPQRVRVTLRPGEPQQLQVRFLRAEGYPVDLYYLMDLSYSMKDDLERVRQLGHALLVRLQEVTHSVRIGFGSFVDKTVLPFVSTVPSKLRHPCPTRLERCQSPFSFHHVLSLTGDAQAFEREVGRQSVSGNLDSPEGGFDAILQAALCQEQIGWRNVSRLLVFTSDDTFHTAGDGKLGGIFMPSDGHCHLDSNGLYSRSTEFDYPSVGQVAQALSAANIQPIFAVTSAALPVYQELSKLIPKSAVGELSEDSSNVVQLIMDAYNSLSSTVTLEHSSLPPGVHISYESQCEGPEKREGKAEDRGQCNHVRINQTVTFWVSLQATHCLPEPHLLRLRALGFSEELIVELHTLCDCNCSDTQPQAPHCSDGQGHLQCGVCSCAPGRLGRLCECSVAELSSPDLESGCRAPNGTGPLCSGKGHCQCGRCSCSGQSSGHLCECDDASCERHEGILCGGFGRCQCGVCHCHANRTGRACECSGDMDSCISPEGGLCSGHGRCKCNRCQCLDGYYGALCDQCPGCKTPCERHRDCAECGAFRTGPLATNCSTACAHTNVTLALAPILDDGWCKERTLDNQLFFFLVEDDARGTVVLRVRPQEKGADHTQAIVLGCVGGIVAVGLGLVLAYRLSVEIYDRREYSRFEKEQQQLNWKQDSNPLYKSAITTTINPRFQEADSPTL
Protocol: VCAM Antagonistic Activity (VCAM-1/α4β7 Binding Assay)
The capacity of a test substance antagonistic to the binding of lymphoma cell strain RPMI-8866 of human B cells, known to express integrin α4β7, to VCAM-1 was determined.
(§1) 100 μl/well of a solution (500 ng/ml) of recombinant human VCAM-1 (R & D systems) solution diluted with buffer A (0.1 M NaHCO3, pH 9.6) was added to a micro titer plate having 96 wells (Nunc Maxisorp). After the incubation at 4° C. overnight, unbound VCAM-1 was removed by washing once with PBS. After completion of the washing, a buffer (buffer B) obtained by diluting Block Ace (Dainippon Pharmaceutical Co., Ltd.) with PBS to ¼ concentration was added in an amount of 150 μl/well. After the incubation at room temperature for 1 hour, buffer B was removed and the plate was washed with PBS once.
RPMI-8866 cells were washed with DMEM twice and incubated in Dulbecco modified Eagle medium containing 10 μg/ml of Calcein-AM (Wako Pure Chemical Industries, Ltd.) (SIGMA, hereinafter referred to as “DMEM”) in dark place at 37° C. for 30 minutes to label with fluorescence. The cells were again suspended in a binding buffer (20 mM HEPES, DMEM containing 0.1% BSA) containing 4 mM of MnCl2.
(§2) 50 μl of a test substance of various concentrations obtained by the dilution with the binding buffer was added to the plate. Immediately thereafter, 50 μl (final volume: 100 μl/well) of the fluorescent RPMI-8866 cells (4×10^6 cells/ml) were added thereto, and they were incubated in dark place at room temperature for 30 minutes. After the shaking on a plate shaker (IKA MTS-4) at 800 rpm for 30 seconds, the solution was immediately removed to remove the unbound cells. The fluorescence quantity of the bound cells remaining in the wells was determined with a fluorescent plate reader (Wallac 1420 ARVO multi-label counter) (filter excitation wave length: 485 nm, emission wave length: 535 nm). The fluorescent strength thus obtained is proportional to the number of RPMI-8866 cells bound to VCAM-1 and remaining on the plate. The binding rate of each test material in various concentrations was determined while the fluorescent strength of the test material-free well was determined to be 100%.

[2] = biological target: T2, integrin α4β1 (Homo sapiens, UniProt P05556+P13612); experiment: VCAM antagonist activity (VCAM-1/α4β1 binding assay), Jurkat cells binding to VCAM-1; format: cell-based; details: Jurkat human T cells binding to recombinant human VCAM-1; read-out: VCAM antagonistic activity (IC50) α4β1
T2 construct: cell strain Jurkat (ATCC TIB-152) of human T cells, known to express integrin α4β1; endogenous in cells; host or cells: Jurkat (ATCC TIB-152)
Protocol: VCAM Antagonist Activity (VCAM-1/α4β1 Binding Assay)
The capacity of a test substance antagonistic to the binding of cell strain Jurkat (ATCC TIB-152) of human T cells, known to express integrin α4β1, to VCAM-1 was determined.
as §1
Jurkat cells were washed with Dulbecco modified Eagle medium (SIGMA, hereinafter referred to as “DMEM”) twice and then incubated in DMEM containing 10 μg/ml of Calcein-AM (Wako Pure Chemical Industries, Ltd.) at 37° C. in dark place for 30 minutes to label with fluorescence. The cells were again suspended in a binding buffer (20 mM HEPES, DMEM containing 0.1% BSA).
as §2, with “Jurkat” for “RPMI-8866”, “1920” for “1420”

T2 sequence (P05556 21-798, one chain of several): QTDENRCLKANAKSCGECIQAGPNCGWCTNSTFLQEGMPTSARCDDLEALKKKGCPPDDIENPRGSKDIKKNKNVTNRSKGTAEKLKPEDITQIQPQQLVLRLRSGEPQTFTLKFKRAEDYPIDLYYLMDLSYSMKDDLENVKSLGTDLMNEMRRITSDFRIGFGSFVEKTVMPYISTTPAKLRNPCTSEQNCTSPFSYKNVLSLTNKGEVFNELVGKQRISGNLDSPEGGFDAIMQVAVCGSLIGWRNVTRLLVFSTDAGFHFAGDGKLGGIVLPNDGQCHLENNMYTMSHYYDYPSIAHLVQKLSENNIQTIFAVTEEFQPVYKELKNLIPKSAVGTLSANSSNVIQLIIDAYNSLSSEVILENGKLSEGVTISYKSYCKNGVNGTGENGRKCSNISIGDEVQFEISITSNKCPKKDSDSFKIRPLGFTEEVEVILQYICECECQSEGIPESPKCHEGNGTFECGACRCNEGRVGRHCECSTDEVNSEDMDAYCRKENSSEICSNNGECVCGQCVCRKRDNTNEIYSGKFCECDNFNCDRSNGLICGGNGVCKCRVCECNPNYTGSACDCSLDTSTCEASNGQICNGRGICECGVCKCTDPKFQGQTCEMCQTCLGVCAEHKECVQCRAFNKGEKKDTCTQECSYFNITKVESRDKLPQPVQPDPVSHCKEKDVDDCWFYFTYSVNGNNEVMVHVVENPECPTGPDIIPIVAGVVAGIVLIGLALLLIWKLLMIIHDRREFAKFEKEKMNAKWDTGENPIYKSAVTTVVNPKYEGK

| SMILES | IC50 [1] [nM] | IC50 [2] [nM] |
| --- | --- | --- |
| Cc1cccc2[nH]c(=O)n(-c3ccc(C[C@H](NC(=O)c4c(Cl)cccc4Cl)C(=O)O)cc3)c(=O)c12 [Example 53] | 66.1 | 2460 |
| O=C(N[C@@H](Cc1ccc(-n2c(=O)oc3c(ccc4ccccc43)c2=O)cc1)C(=O)O)c1c(Cl)cccc1Cl [Example 137] | 11.2 | 2120 |
| O=C(N[C@@H](Cc1ccc(-n2c(=O)[nH]c3nccnc3c2=O)cc1)C(=O)O)c1c(Cl)cccc1Cl [Example 80] | 74 | 960 |
| Cc1cccc2c1c(=O)n(-c1ccc(C[C@H](NC(=O)c3c(Cl)cccc3Cl)C(=O)O)cc1)c(=O)n2Cc1ccccc1 [Example 97] | 13 | 1500 |
| O=C(N[C@@H](Cc1ccc(-n2nnc3c(Cl)ccc(Cl)c3c2=O)cc1)C(=O)O)c1c(Cl)cccc1Cl [Example 81] | 8.6 | 72 |
| COc1cccc(OC)c1C(=O)N[C@@H](Cc1ccc(-n2c(=O)c3ccccc3n(C)c2=O)cc1)C(=O)O [Example 9] | 94 | 440 |
| O=C(N[C@@H](Cc1ccc(-n2c(=O)[nH]c3c(Cl)cccc3c2=O)cc1)C(=O)O)c1c(Cl)cccc1Cl [Example 45] | 10.2 | 340 |
| CSc1nc2ccccc2c(=O)n1-c1ccc(C[C@H](NC(=O)c2c(Cl)cccc2Cl)C(=O)O)cc1 [Example 18] | 23 | 1900 |
| COc1ccc2[nH]c(=O)n(-c3ccc(C[C@H](NC(=O)c4c(Cl)cccc4Cl)C(=O)O)cc3)c(=O)c2c1 [Example 48] | 28 | 1800 |
| CCCCc1nc2ccccc2c(=O)n1-c1ccc(C[C@H](NC(=O)c2c(C)cccc2C)C(=O)O)cc1 [Example 41] | 86 | 3410 |
| CC(C)n1c(=O)n(-c2ccc(C[C@H](NC(=O)c3c(Cl)cccc3Cl)C(=O)O)cc2)c(=O)c2cc([N+](=O)[O-])ccc21 [Example 57] | 29.9 | 639 |
| CCN(CC)c1ccc2c(c1)c(=O)n(-c1ccc(C[C@H](NC(=O)c3c(Cl)cccc3Cl)C(=O)O)cc1)c(=O)n2C [Example 111] | 11 | 88 |
| Nc1ccc2c(=O)n(-c3ccc(C[C@H](NC(=O)c4c(Cl)cccc4Cl)C(=O)O)cc3)c(=O)oc2c1 [Example 142] | 9 | 210 |
| CCSc1nc2ccccc2c(=O)n1-c1ccc(C[C@H](NC(=O)c2c(Cl)cccc2Cl)C(=O)O)cc1 [Example 17] | 43 | 2100 |
| CCc1nc2ccccc2c(=O)n1-c1ccc(C[C@H](NC(=O)c2c(Cl)cccc2Cl)C(=O)O)cc1 [Example 32] | 64 | 2420 |
| O=C(N[C@@H](Cc1ccc(-n2c(=O)[nH]c3ccc(F)cc3c2=O)cc1)C(=O)O)c1c(Cl)cccc1Cl [Example 52] | 55.3 | 1310 |
| O=C(N[C@@H](Cc1ccc(-n2c(=O)[nH]c3ccc(Cl)cc3c2=O)cc1)C(=O)O)c1c(Cl)cccc1Cl [Example 47] | 76 | 1980 |

These reach a lower IC50 [1]. Values come first.

| IC50 [1] [nM] | IC50 [2] [nM] | SMILES |
| --- | --- | --- |
| 7.9 | 1770 | Cc1cccc2c(=O)n(-c3ccc(C[C@H](NC(=O)c4c(Cl)cccc4Cl)C(=O)O)cc3)c(=O)[nH]c12 [Example 50] |
| 6.5 | 107 | CN1C(=O)N(c2ccc(C[C@H](NC(=O)c3c(Cl)cccc3Cl)C(=O)O)cc2)Cc2ccccc21 [Example 147] |
| 5.4 | 86 | COc1cccc2c(=O)n(-c3ccc(C[C@H](NC(=O)c4c(Cl)cccc4Cl)C(=O)O)cc3)c(=O)n(C)c12 [Example 180] |
| 2.2 | 370 | CCn1c(=S)n(-c2ccc(C[C@H](NC(=O)c3c(Cl)cccc3Cl)C(=O)O)cc2)c(=O)c2cc([N+](=O)[O-])ccc21 [Example 67] |
| 1.6 | 52 | Cn1c(=O)n(-c2ccc(C[C@H](NC(=O)c3c(Cl)cccc3Cl)C(=O)O)cc2)c(=O)c2cc([N+]3(C)CCCC3)ccc21 [Example 113] |
| 1.4 | 16 | CC(=O)Nc1ccc2c(c1)c(=O)n(-c1ccc(C[C@H](NC(=O)c3c(Cl)cccc3Cl)C(=O)O)cc1)c(=O)n2C [Example 104] |
| 1.3 | 28 | Cn1c(=O)n(-c2ccc(C[C@H](NC(=O)c3c(Cl)cccc3Cl)C(=O)O)cc2)c(=O)c2cc([N+](=O)[O-])ccc21 [Example 63] |
| 1.1 | 17 | Cn1c(=O)n(-c2ccc(C[C@H](NC(=O)c3c(Cl)cccc3Cl)C(=O)O)cc2)c(=O)c2cc(N)ccc21 [Example 107] |
